Test results: patent publication US20040265357A1, “Combination of liponic acid and glutamine in food and pharmaceutical products” (priority 2001, published 2004)
Read-outs that look alike come from different tables or passages of the source.

What was measured:
experimental rat model = settings: cited from earlier work; for effectiveness against buthionine sulfoximine-induced cataract: comparison of enantiomers and racemate
aged mice = settings: cited from earlier work
diabetes patients = settings: daily 600 mg for more than 3 months; cited from earlier work
mice 6-8 weeks old = settings: mice on vitamin E-deficient diet; 1.65 g/kg of body weight; cited from earlier work
[1] = test system: experimentally induced cerebral ischemia; settings: cited from earlier work
rats = settings: oral administration; cited from earlier work
Human Jurkat T cells = experiment: Increase in intracellular glutathione levels, Jurkat T cells (GSH by HPLC); assay type: cell-based
Protocol: (§1) Human Jurkat T cells and U937 cells, a human myelomonocyclic cell line, were used for the experiments. Jurkat and U937 cells were cultivated in RPMI 1640 medium (Bio Whittaker, Belgium)—supplemented with 10% heat-inactivated fetal calf serum (FCS; Linaris, Germany), 1% penicillin/streptomycin (Life Technologies, Scotland) and 2 mM L-glutamine (Sigma, Mont.)—under standard conditions (95% humidity, 5% CO2 and 37° C.). After harvesting, the cells were washed 2× with PBS, resuspended in standard medium (RPMI 1640 with 10% FCS, 1% streptomycin/penicillin, without L-glutamine) in a concentration of 2×10^5 cells/ml and transferred into […] culture bottles. The cells were treated with and without addition of 2 mM glutamine and in each case with or without 100 μM α-lipoic acid over a period of 4, 8, 24 or 48 h. After the respective treatment period had elapsed, the cells were harvested and washed 2× with PBS. 2×10^6 cells were resuspended in sulfosalicylic acid (6.5% in distilled water; Marck, Germany) and incubated on ice for 15 min. The supernatant after pelleting of the cells (5 000 g, 10 min) was aspirated off and stored at −20° C. until glutathione was determined by HPLC.

[2] = test system: U937 cells, a human myelomonocyclic cell line; experiment: Increase in intracellular glutathione levels, U937 cells (GSH by HPLC); assay type: cell-based
Protocol: as §1

mice = settings: oral administration; cited from earlier work
[3] = 0.05 mM glutamine added to culture medium
[4] = 2 mM glutamine added to culture medium

O=C(O)CCCCC1CCSS1 (racemic) [racemic mixture]
effectiveness against buthionine sulfoximine-induced cataract (experimental rat model): effective

O=C(O)CCCCC1CCSS1 (stereo not drawn) [lipoic acid, 5-(1,2-dithiolan-3-yl)valeric acid]
long-term memory (aged mice): improve the long-term memory
oxidative stress (diabetes patients): reduction in oxidative stress
symptoms of vitamin E deficiency phenomena (muscular dystrophy, weight loss) (mice 6-8 weeks old): prevents the symptoms
cataract induced by buthionine sulfoximine (experimental rat model; rat model, subcutaneous injection 25 mg/kg body weight twice): significant reduction
infarct size ([1]; iv, 25 mg/kg body weight): reduction in the infarct size

O=C(O)CCCC[C@@H]1CCSS1 [(R)-α-lipoic acid, (R)-5-(1,2-dithiolan-3-yl) valeric acid]
mitochondrial function (rats): improvement in mitochondrial function
effectiveness against buthionine sulfoximine-induced cataract (experimental rat model): effective

O=C(O)CCCC[C@@H](S)CCS (racemic) [dihydrolipoic acid]
infarct size ([1]; 50 and 100 mg/kg body weight): reduction in the infarct size

NC(=O)CCC(N)C(=O)O (stereo not drawn) [glutamine, 2-aminopentanoic acid 5-amide]
concentration of reduced glutathione (GSH) (Human Jurkat T cells; [3]): no significant change
concentration of reduced glutathione (GSH) (Human Jurkat T cells; [4]): significant increases
concentration of reduced glutathione (GSH) [2, 3]: no significant change
concentration of reduced glutathione (GSH) [2, 4]: significant increases
number of lymphocytes in Peyer's patches (mice): increased number of lymphocytes

O=C(O)CCCC[C@H]1CCSS1 (single isomer, unassigned) [S enantiomer]
effectiveness against buthionine sulfoximine-induced cataract (experimental rat model): effective
